Experimental data from patent US3932471A, “Azide” (priority 1973, dated 1976).
Converted amounts (≈) assume the structure as drawn.

Key:
Assay type in all cases: in vivo
[1] = test system: housefly (Musca domestica); test: Housefly spray test (HF); conditions: 72 h, contact activity rating, 50% mortality, three days
Protocol: (§1) The compounds are evaluated for biological activity against the following representative pests: Mexican bean beetle (Epilachna varivestis), Southern army worm (Prodenia eridania), housefly (Musca domestica), bean aphid (Aphis fabae), and red spider mite (Tetranychus sp.). The last two pests are treated both by contact and systemic application.
(§2) For purposes of comparison, results obtained with known Compound 7472, Compound 7577, and aldicarb are included in the test results. Each test compound is rated using the following scale:
This test determines the insecticidal activity of the compound being tested against adult houseflies, Musca domestica. Stock formulations containing 500 ppm of each test chemical are prepared using the procedure described in Example 15 and are diluted to obtain the appropriate lower concentrations.
Ten adult flies are placed in a cylindrical screen cage 11/2 by 4 inches fabricated from 20-mesh stainless steel screening and are sprayed with 50 ml of the stock or diluted formulation. The flies are supplied food and drink from a dextrose solution by draping a paper wick over the outside of the screen cylinder and are able to feed and drink ad libitum. Percent mortality obtained is determined three days after treatment. Results of this test are shown in Table 7 as HF (housefly spray test).

[2] = test system: Southern army worm (Prodenia eridania); test: Southern army worm spray test (AW); conditions: 72 h; contact activity rating, 50% mortality, three days
Protocol: as §1, §2
Southern Army Worm Spray Test
Paired fully expanded primary leaves excised from Scarlet runner bean plants are maintained in plastic tubes containing water and sprayed with the test formulation prepared as described in Example 15. After the spray deposit on the leaves is dry, the paired leaves are separated. One leaf is placed onto 1.5 percent water agar and infested with 10 newly hatched Southern army worm larvae. The covered test receptacle is held at 72° F for three days and then the percent mortality is determined. Results of this test are shown in Table 7 as AW (Southern army worm spray test).

[3] = test system: root-knot nematodes (Meloidogyne spp.); test: Root-knot nematocide test
Protocol: Root-knot Nematocide Test
This test is an evaluation of the effectiveness of the compound being tested against infection by root-knot nematodes (Meloidogyne spp.).
Composted greenhouse soil, diluted by one-third with clean washed sand, is infected with about two grams of knotted or galled tomato roots per pot. Treatment is accomplished by applying 25 ml of the formulated compound onto the infested soil. The formulation contains 0.056 g of Compound 7960, 1.0 ml stock emulsifier solution (0.25% Triton X-155 in acetone by volume), and 24.0 ml deionized water, giving a concentration of 2240 ppm. Lower concentrations are achieved by dilution.
After treatment with the test formulation, the soil, inoculum, and formulation are thoroughly mixed, returned to the pot, and the mixture incubated for seven days at 20° C and constant moisture. After incubation, two seedlings of Rutgers tomato transplants and three garden nasturtium (Nasturtium spp.) seeds are set in each pot. Roots are removed from the soil after three weeks of growth and rated for gall (root-knot nematode infection) formation. Nasturtium roots are evaluated only when necrosis of the tomato host has occurred. […] Each of the root systems is rated separately and the average is multiplied by 10 and subtracted from 100 to give percent nematode control.

SMILES	LC50 [1]	LC50 [2]	also measured
CNC(=O)ON=C(CSC#N)C(C)(C)C [Compound 7991, 3,3-dimethyl-2-methylcarbamyloximino-1-thiocyanatobutane]	> 500 µg/mL	> 500 µg/mL	
CCC(C)(C)C(CSC)=NOC(=O)NC [Compound 8520, 3,3-dimethyl-2-methylcarbamyloximino-1-methylthiopentane]	> 500 µg/mL	> 500 µg/mL	
CNC(=O)ON=C(CSC)C(C)C [Compound 7867, 3-methyl-2-methylcarbamyloximino-1-methylthiobutane]	64 to 128 µg/mL (≈ 313 to 627 µM)	> 500 µg/mL	
CCSCC(=NOC(=O)NC)C(C)(C)C [Compound 7862, 1-ethylthio-3,3-dimethyl-2-methylcarbamyloximinobutane]	64 to 128 µg/mL (≈ 275 to 551 µM)	> 500 µg/mL	
CCCC(CSC)=NOC(=O)NC [Compound 9057, 2-methylcarbamyloximino-1-methylthiopentane]	250 to 500 µg/mL (≈ 1220 to 2450 µM)	> 500 µg/mL	
CNC(=O)ON=C(C)C(C)(C)C [Compound 7472, 2,2-dimethyl-3-methylcarbamyloximinobutane, reference compound]	> 500 µg/mL	> 500 µg/mL	
CNC(=O)ON=C(CCSC)C(C)(C)C [Compound 8111, 4,4-dimethyl-3-methylcarbamyloximino-1-methylthiopentane]	250 to 500 µg/mL (≈ 1080 to 2150 µM)	> 500 µg/mL	
CNC(=O)ON=C(C[S+](C)[O-])C(C)(C)C (centres unmarked) [Compound 7804, 3,3-dimethyl-2-methylcarbamyloximino-1-methylsulfinylbutane]	128 to 250 µg/mL (≈ 546 to 1070 µM)	128 to 250 µg/mL (≈ 546 to 1070 µM)	
CNC(=O)ON=C(CN=[N+]=[N-])C(C)(C)C [Compound 8997, 1-azido-3,3-dimethyl-2-methylcarbamyloximinobutane]	128 to 250 µg/mL (≈ 600 to 1170 µM)	128 to 250 µg/mL (≈ 600 to 1170 µM)	Percent Control (nematode) ([3]; 2 lb/A): 0%; Percent Control (nematode) ([3]; 4 lb/A): 100%; Percent Control (nematode) ([3]; 8 lb/A): 100%
CNC(=O)ON=C(C1SCCS1)C(C)(C)C [Compound 8423, 1,1-ethylenedithio-3,3-dimethyl-2-methylcarbamyloximinobutane]			Percent Control (nematode) ([3]; 2 lb/A): 60%; Percent Control (nematode) ([3]; 4 lb/A): 90%; Percent Control (nematode) ([3]; 8 lb/A): 100%
CNC(=O)ON=C(CSC)C1CC1 [Compound 8465, 1-cyclopropyl-1-methylcarbamyloximino-2-methylthioethane]	128 to 250 µg/mL (≈ 633 to 1240 µM)	250 to 500 µg/mL (≈ 1240 to 2470 µM)	
C=CCSCC(=NOC(=O)NC)C(C)(C)C [Compound 7897, 1-allylthio-3,3-dimethyl-2-methylcarbamyloximinobutane]	64 to 128 µg/mL (≈ 262 to 524 µM)	> 500 µg/mL	
CCNC(=O)ON=C(CSC)C(C)(C)C [Compound 7797, 2-ethylcarbamyloximino-3,3-dimethyl-1-methylthiobutane]	64 to 128 µg/mL (≈ 275 to 551 µM)	> 500 µg/mL	
C=CCNC(=O)ON=C(CSC)C(C)(C)C [Compound 7799, 2-allylcarbamyloximino-3,3-dimethyl-1-methylthiobutane]	128 to 250 µg/mL (≈ 524 to 1020 µM)	> 500 µg/mL	
CNC(=O)O/N=C/C(C)(C)SC [aldicarb, reference compound]	4 to 8 µg/mL (≈ 21 to 42 µM)	> 500 µg/mL	
CNC(=O)ON=C(CSCCSC)C(C)(C)C [Compound 9026, 3,3-dimethyl-2-methylcarbamyloximino-1-(2-methylthioethylthio)-butane]	> 500 µg/mL	> 500 µg/mL	Percent Control (nematode) ([3]; 1 lb/A): 30%; Percent Control (nematode) ([3]; 2 lb/A): 60%; Percent Control (nematode) ([3]; 4 lb/A): 70%; Percent Control (nematode) ([3]; 8 lb/A): 90%
CSCC(=NOC(=O)N(C)C)C(C)(C)C [Compound 7871, 3,3-dimethyl-2-dimethylcarbamyloximino-1-methylthiobutane]	> 500 µg/mL	> 500 µg/mL	
CNC(=O)ON=C(CSc1ccccc1)C(C)(C)C [Compound 7718, 3,3-dimethyl-2-methylcarbamyloximino-1-phenylthiobutane]	250 to 500 µg/mL (≈ 892 to 1780 µM)	> 500 µg/mL	
CCC(CSC)=NOC(=O)NC [Compound 7916, 2-methylcarbamyloximino-1-methylthiobutane]	64 to 128 µg/mL (≈ 336 to 673 µM)	> 500 µg/mL	
CNC(=O)ON=C(C(C)SC)C(C)(C)C (centres unmarked) [Compound 8071, 2,2-dimethyl-3-methylcarbamyloximino-4-methylthiopentane]	> 500 µg/mL	> 500 µg/mL	
CNC(=O)ON=C(C)CSC [Compound 7603, 2-methylcarbamyloximino-1-methylthiopropane]	16 to 32 µg/mL (≈ 90.8 to 182 µM)	> 500 µg/mL	
CNC(=O)ON=C(C)C(C)(C)SC [Compound 7577, 3-methyl-2-methylcarbamyloximino-3-methylthiobutane, reference compound]	> 500 µg/mL	> 500 µg/mL	
CNC(=O)ON=C(CSC)CC(C)C [Compound 9058, 4-methyl-2-methylcarbamyloximino-1-methylthiopentane]	250 to 500 µg/mL (≈ 1150 to 2290 µM)	> 500 µg/mL	
CNC(=O)ON=C(CSCC(=O)OC)C(C)(C)C [Compound 7503, 1-carbomethoxymethylthio-3,3-dimethyl-2-methylcarbamyloximinobutane]	> 500 µg/mL	> 500 µg/mL	
CNC(=O)ON=C(CSC)CC(C)(C)C [Compound 8519, 4,4-dimethyl-2-methylcarbamyloximino-1-methylthiopentane]	> 500 µg/mL	> 500 µg/mL	
CSCC(=NOC(N)=O)C(C)(C)C [Compound 7859, 2-carbamyloximino-3,3-dimethyl-1-methylthiobutane]	> 500 µg/mL	> 500 µg/mL	
CNC(=O)ON=C(CS(C)(=O)=O)C(C)(C)C [Compound 8868, 3,3-dimethyl-2-methylcarbamyloximino-1-methylsulfonylbutane]	128 to 250 µg/mL (≈ 511 to 999 µM)	> 500 µg/mL	
CNC(=O)ON=C(CSC)C(C)(C)SC [Compound 7960, 1,3-bis(methylthio)-3-methyl-2-methylcarbamyloximinobutane]	> 500 µg/mL	> 500 µg/mL	Percent Control (nematode) ([3]; 0.5 lb/A): 97%; Percent Control (nematode) ([3]; 1 lb/A): 100%; Percent Control (nematode) ([3]; 2 lb/A): 100%; Percent Control (nematode) ([3]; 4 lb/A): 100%; Percent Control (nematode) ([3]; 8 lb/A): 100%
CCCC(C)(C)C(CSC)=NOC(=O)NC [Compound 7934, 3,3-dimethyl-2-methylcarbamyloximino-1-methylthiohexane]	> 500 µg/mL	> 500 µg/mL	
